# Measurements as given in a melting point compilation (Tetko et al.; mined from patent text by program, amines drawn as free bases though some values may be those of a salt).
row,melting point,SMILES
1,160 to 161 °C,CC(=NOCCOc1ccc(CC2SC(=O)NC2=O)cc1)c1ccc(OCc2ccccc2)nc1 (centres undefined)
2,48 to 49 °C,"CCN1CCCC1CNC(=O)c1c(O)c(Cl)cc(Cl)c1OC (single isomer, unassigned; (-))"
3,55 to 57 °C,CCCOC(=O)c1cc(-n2c(OC)nc(C(F)(F)F)cc2=O)c(F)cc1Cl
4,137 to 139 °C,CC(C)=CCCC(C)C1CCC2C3CC=C4CC(O)CC(O)C4(C)C3CCC12C (centres undefined)
5,> 270 °C,CC1(C)C(=O)NC(=O)c2c1ccc(NC(=O)c1ccccc1)c2[N+](=O)[O-]
6,95 to 98 °C,C=CCNc1cc(Cl)nnc1Cl
7,106 to 108 °C,O=C1CC(C(F)(F)F)CC(=O)N1c1cc(OCC=C(Cl)Cl)c(Cl)cc1F
8,180 to 182 °C,CC1(C(=O)c2c[nH]c3ncc(-c4cccc(N5CCCC5)c4)nc23)CCCCC1
9,95 to 97 °C,Cc1cc(NCc2ccccc2)n(C)n1
10,96 to 98 °C,CCOC(=O)c1ncc2[nH]c3cccc(Oc4ncccn4)c3c2c1COC
11,70 to 72 °C,CCN(CC)C(C)COc1ccc(NC(=O)C#Cc2ccc(Cl)cc2Cl)cc1 (centres undefined)
12,154 to 155 °C,CC(C)(Oc1ccc(CCC(=O)c2ccc(-c3ccc(C(F)(F)F)cc3)s2)cc1)C(=O)O
13,178 to 183 °C,COc1cc2c(cc1-c1cccnc1)-c1c(-c3cccs3)c3c(n1CC2)C(=O)N(C(C)C)CCN(C(=O)C(C)C)C3
14,119 °C,CC(C)(C)OC(=O)[C@@H](CCCOS(=O)(=O)c1ccc2ccccc2c1)C[C@H](NC(c1ccccc1)(c1ccccc1)c1ccccc1)C(=O)OC(C)(C)C
15,79 to 81 °C,COc1ccc(/C=C/C(=O)c2ccccc2C(=O)O)cc1-c1cccs1
16,153 to 155 °C,O=c1[nH]c2ccc(S(=O)CCN3CCC(O)(Cc4ccc(F)cc4)CC3)cc2o1 (centres undefined)
17,> 300 °C,O=c1[nH]c2ccc3cccnc3c2o1
18,94 to 95 °C,O=C/C=C/c1cccc(Cl)c1Cl
19,161 to 162 °C,CC(C)n1nc(-c2c(OC3CCC3)nc(N)nc2-c2ccccc2)ccc1=O
20,161 °C,CC(=S)NCC1CN(c2ccc(S(=O)CCF)c(F)c2)C(=O)O1 (centres undefined)
21,116 to 122 °C,CN(C(=O)CBr)c1ccc(OCC(=O)N[C@@H](CC(N)=O)C(=O)N[C@@H](Cc2ccccc2)[C@H](O)C(=O)N2CCC[C@H]2C(=O)NC(C)(C)C)cc1
22,161 °C,COc1c(C)cc2[nH]c(S(=O)Cc3nccc(C)c3C)nc2c1C (centres undefined)
23,74 to 75 °C,CCOC(=O)c1nc(-c2ccc(Cl)c(OC)c2F)cc(N)c1Cl

row,melting point,SMILES
1,130 °C,COC(=O)C(N)(CF)Cc1ccc(O)cc1 (centres undefined)
2,110 to 111 °C,COCC1CN(c2ccc3c(c2)CCC(CCC(F)(F)F)O3)C(=O)O1 (centres undefined)
3,352 to 357 °C,CC(C)(C)C(=O)Oc1n[nH]c(=O)c2nc3cc(Cl)ccc3c(O)c12
4,77 to 89 °C,CN(CCC(Oc1ccc(C(=O)c2ccc3ccccc3c2)cc1)c1ccccc1)CC(=O)O (centres undefined)
5,88 to 90 °C,COC(=O)COc1cccc2c(CCN=[N+]=[N-])c(C)oc12
6,119 to 121 °C,COC(=O)CCC1=NC=C(c2ccc3c(c2)NC(=O)CO3)C(c2ccccc2)S1 (centres undefined)
7,109 to 110 °C,CCN(CC)C(=O)C=C1C=C(C(C)(C)C)C(=O)C(C(C)(C)C)=C1
8,119 to 120 °C,CN=C(ON1C(=O)CCC1=O)c1ccccc1
9,173 to 174 °C,OCC1OC(n2cnc3c(NCCc4csc5ccccc45)ncnc32)C(O)C1O (centres undefined)
10,227 to 228 °C,c1ccc(Cc2ncc(-c3ccc4cc(OCc5nnn[nH]5)ccc4c3)o2)cc1
11,207 °C,COc1cc(Nc2nccc(-c3nc(C)c(C)s3)n2)cc(OC)c1OC
12,105 to 106 °C,COC(=O)c1cccc(-c2nnn(Cc3ccc(OC)cc3)n2)c1
13,85 to 86 °C,CCCCC(COc1cccc(COc2cccc3cccnc23)c1)OC(C)=O (centres undefined)
14,61 to 62 °C,OC(COc1ccccc1)c1ccccc1 (centres undefined)
15,280 to 284 °C,O=C1Nc2ccc(F)c(F)c2C1c1ncnc2nn(C3CCCC3)cc12 (centres undefined)
16,164 to 166 °C,CCNc1nnc2ccc(-c3cccc(N(CC)C(=O)CC)c3)nn12
17,88 to 89 °C,CN(C)CCSc1ncccc1C(O)c1ccccc1 (centres undefined)
18,122 to 124 °C,CCCc1ccc(NC(C)=O)cn1
19,196 to 197 °C,CCc1c(C)sc(NC(=O)OC(C)(C)C)c1C(=O)O
20,64 to 69 °C,CCc1nc2c(C)cc(C)nc2n1Cc1ccc(C(CCNS(=O)(=O)C(F)(F)F)c2ccccc2)cc1 (centres undefined)
21,136 to 137 °C,COc1cc(N)c(Cl)cc1C(=O)NCC1CCC(C)N1Cc1ccccc1 (centres undefined)
22,108 to 110 °C,Brc1ccccc1C=Cc1ccco1
23,141 °C,C=C(Cc1ccccc1)C(=O)NN1CCSCC1

row,melting point,SMILES
1,239 to 242 °C,O=C1O[C@@H](Cn2ccnn2)CN1c1ccc(-c2ccc(C3=NO[C@H](Cn4ccnc4)C3)nc2)c(F)c1
2,169 to 180 °C,CC(C)c1ccc2c(c1)NC(=S)C2=O
3,198 to 200 °C,CCN(CC)CCOC(=O)C1=C(C)Nc2ccnc(OC(C)C)c2C1c1ccccc1C(F)(F)F (centres undefined)
4,222 to 223 °C,CN(c1cc(OC(F)(F)F)cc2cc(C(=O)NCCSC(c3ccccc3)(c3ccccc3)c3ccccc3)[nH]c12)S(=O)(=O)c1cccs1
5,104 °C,Cc1cc(OC(F)(F)F)ccc1NC(=O)c1cccc(I)c1C(=O)NC(C)CC(=O)N(C)C (centres undefined)
6,261 to 263 °C,Cc1nnc(NC(=O)C2c3ccccc3Oc3ccccc32)o1
7,133 to 134 °C,CC1CCN(Cc2cccc(OCCCNc3nc(N)nn3C)c2)CC1
8,172 °C,C=CCOc1ccc2c(C)c(C#N)c(=O)oc2c1C
9,211 °C,O=C(Cc1noc2ccccc12)N[C@H]1CC[C@H](CCN2CCN(c3nccc4c3OCC4)CC2)CC1
10,174 to 175 °C,O=C(O)CCc1ccc(OCCCc2cc(-c3ccc(C(F)(F)F)cc3)no2)cc1
11,115 to 117 °C,Cc1nc2c3ccccc3ccn2c1CN1CCN(CCO)CC1
12,137 to 138 °C,Clc1cc(Oc2ccc3[nH]ccc3c2)ncn1
13,131 to 133 °C,COc1ccc2c(c1)c(Cc1cc(=O)n(-c3ccc(C)cc3)[nH]1)c(C)n2C(=O)c1ccc(Cl)cc1
14,91 to 93 °C,CCSc1sc(C(=O)N2CCCC2)c2c1-c1oncc1C(C)(C)C2
15,184 to 185 °C,CC(=O)Oc1cc2c(c3ccccc13)Nc1ccccc1S2
16,95 to 98 °C,COc1cc(Oc2cccc(OC(F)(F)F)c2)nc(C(=O)Nc2ccccc2)c1
17,76 to 78.5 °C,CN(C)Cc1ccc(CSCCNc2nc(N)n[nH]2)o1
18,116 to 118 °C,CN(CCOc1ccccc1C(N)=O)CCc1ccc([N+](=O)[O-])cc1
19,129 to 130 °C,CCCc1c(O)c(C(C)=O)cc(Br)c1OCCCOc1c(C(C)=O)ccc(OCC(=O)O)c1CCC
20,137 to 142 °C,CC(Oc1ccccc1[N+](=O)[O-])c1nnc(N)s1 (centres undefined)
21,99 to 101 °C,Cc1ccc(S(=O)(=O)OCC2Cc3cccc(-c4ccccc4F)c3O2)cc1 (centres undefined)
22,146 to 148 °C,Fc1ccc(C2=C(c3ccccc3)N(C(F)(F)F)CO2)cc1F
23,122 to 124 °C,CCOc1cc([C@@H](CS(C)(=O)=O)N2Cc3cccc(NCC(C)C)c3C2=O)ccc1OC

row,melting point,SMILES
1,90 to 91 °C,Cn1nc(-c2ccc(Cl)cc2)n(Cc2ccccc2)c1=O
2,255 to 257 °C,CCCC(=O)c1cnc2c(OC)csc2c1Nc1ccc(O)cc1C
3,155 to 157 °C,O=C1C(=O)c2ccccc2C2=C1SCC1(CCN(C(=O)CSc3ccccc3)CC1)O2
4,60.5 to 61 °C,COc1ccc(-c2snnc2SC)cc1
5,129 to 130 °C,CCOC(=O)CN1CC(=O)N(C)c2ccc([N+](=O)[O-])cc2C1=O
6,129 to 135 °C,ClC1=Nc2cc(Cl)ccc2Cn2cccc21
7,141 to 143 °C,Cc1c(Cl)c(Oc2c(Cl)cc(C(F)(F)F)cc2Cl)nn1C(=O)NCCCl
8,266 to 267 °C,CCOc1cc2c(O)c(Br)cnc2nc1C
9,90 to 91 °C,OCCC1(c2ccc(Cl)c(Cl)c2)CNCCO1 (centres undefined)
10,81 °C,COc1cc(OC)nc(Oc2ccccc2C=O)n1
11,183 to 185 °C,COC(=O)[C@H]1CC[C@H](n2ccn(-c3ccc(OCc4ccccc4)cc3)c2=O)CC1
12,134 to 135 °C,CC(c1cccnn1)C(O)(Cn1cncn1)c1ccc(F)cc1F (centres undefined)
13,288 to 289 °C,c1cnc2[nH]c(-c3ccc(C4OCCCO4)cc3)cc2n1
14,115 °C,CNCCCOc1ccc(S(=O)(=O)c2[nH]c3ccccc3c2C(C)C)cc1
15,109 to 111 °C,COc1ccc2c(c1)C(CCNC(=O)C(F)(F)F)C(c1ccccc1)C2 (centres undefined)
16,164 to 167 °C,O=C(COc1cccc(CCNC(=O)OCc2ccccc2)c1)Nc1nnn[nH]1
17,192 to 200 °C,Oc1ccccc1N1c2ccccc2Sc2ccccc21
18,138 to 140 °C,COc1cc(COc2nn(-c3ccccc3)cc2/C=C/P(=O)(O)O)ccc1OCc1nc(-c2ccco2)oc1C
19,85 to 86 °C,Oc1ccc(Oc2ccc(Cl)cc2)cc1
20,115 to 118 °C,CC12CCC3C4CCC(=O)C=C4CCC3C1CCC2CO (centres undefined)
21,211 °C,CNc1ccc(Sc2nnnn2C)c2cc(-c3nccs3)[nH]c12
22,166 to 174 °C,CC(=O)c1cccc(OC2SCC(O)C(O)C2O)c1 (centres undefined)
23,78 to 82 °C,CNC(=O)CN(CCN(CCN(CC(=O)O)CC(=O)NC)CC(=O)O)CC(=O)O

row,SMILES,melting point
1,Cc1ccc(Cn2nc(C(=O)O)cc2-c2ccc(Cl)c(C)c2)cc1,180 °C
2,CC12CC(c3ccc(C=O)cc3)C3=C4CCC(=O)C=C4CCC3C1CCC2O (centres undefined),197 to 200 °C
3,O=C(c1ccc(Cl)cc1)c1cc([N+](=O)[O-])ccc1N1CCC(Cc2ccccc2)CC1,211 °C
4,BrCc1ccc2ocnc2c1,90 to 93 °C
5,CNC(=O)Nc1ccc2[nH]cc(CCN)c2c1,188 to 190 °C
6,CCN(CC)C(=O)NC1CC2c3cccc4[nH]cc(c34)CC2N(C)C1 (centres undefined),171 to 173 °C
7,COc1cc(NC(=O)Oc2ccc(N(CCCl)CCCl)cc2)cc(Nc2c3ccccc3nc3ccccc23)c1,179 to 180 °C
